Data reported in patent publication US20250051419A1, “POLYPEPTIDE MODULATORS” (Georgiamune Inc., priority 2021, published 2025).

Key:
human CD4 T cells = test: Flow cytometry of Tcm and Tte after PD-L2-IgG treatment of stimulated T cells; assay type: cell-based; conditions: 25 μg/mL, 48 hours after treatment, vs untreated, p<0.05
Experimental: After 72 hours, the cells were treated with PD-L2-IgG at concentration of 25 μg/mL. Control wells were left untreated. Forty-eight hours after treatment, the cells were collected, washed and stained with the fluorophore labeled antibodies, and analyzed by flow cytometry. Tom were defined as CD45RO^high/CD62L^high/CD45RA^low. Exhausted T cells or terminal effector T cells (“Tte”) were defined as CD45RO^low/CD62L^low/CD45RA^high.

PD-1 = biological target: T1, PD-1 (Mus musculus, UniProt Q02242); test: Immunoprecipitation of PD-1 and Western blot of PD-1 bound ITK and SHP2; assay type: cell-based; conditions: pre-activated primary mouse CD4 T cells, PD-1 immune-precipitated 5 minutes after treatment, Western blot, compared to control Ab
T1 construct: endogenous in cells
T1 sequence (Q02242 25-288): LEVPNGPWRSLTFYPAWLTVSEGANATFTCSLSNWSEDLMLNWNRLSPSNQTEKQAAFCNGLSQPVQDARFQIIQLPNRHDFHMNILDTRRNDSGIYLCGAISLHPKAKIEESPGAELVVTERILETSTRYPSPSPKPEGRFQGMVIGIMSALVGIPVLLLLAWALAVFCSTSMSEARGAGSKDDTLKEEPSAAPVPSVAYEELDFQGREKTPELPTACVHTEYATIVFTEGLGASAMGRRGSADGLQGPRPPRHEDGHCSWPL
Experimental: FIGS. 4 and 5 show the modulation of ITK and its effects on immune response. […] However, when there is more ITK than SHP2, a stimulatory signal was generated. When there is the same amount of ITK and SHP2, the immune response was either inhibitory or activating. […] Thus, an activator of ITK would have the effect of enhancing an immune response and an inhibitor of ITK can suppress the immune response. […] PD-1 was immune-precipitated with beads 5 minutes after pre-activated primary mouse CD4 T cells were treated with PD-L1-IgG, PD-L2-IgG or anti-PD-1 mouse blocking antibody (clone RMP1-14).

Substance: PD-L2-IgG: PD-L2 fused to IgG, used to treat T cells; sequence not stated at the place
- Tcm (CD45RO high/CD62L high/CD45RA low) (human CD4 T cells): significant increase
- Tte (exhausted or terminal effector T cells, CD45RO low/CD62L low/CD45RA high) (human CD4 T cells): significant decrease
- ITK/SHP2 ratio (PD-1 bound ITK and SHP2) (PD-1): increased
